In patent US20240066155A1, “DUAL MODE RADIOTRACER AND -THERAPEUTICS” (priority 2021, published 2024):
Where “and” joins values, the source holds several entries; their conditions need not be identical. Equal entries are not always repeated.

Tests used:
LNCaP cells = assay: PSMA-mediated internalization into LNCaP cells; type: cell-based; details: 1 h, 37° C., percentage of reference ligand ([125I]BA)KuE, n=3
Method: (§1) Competitive binding studies were determined on LNCaP cells (1.5×10^5 cells in 1 mL/well) after incubation at 4° C. for 1 h, using (((S)-1-carboxy-5-(4-([^125I]iodo)benzamido)pentyl)carbamoyl)-L-glutamic acid ([^125I]BA)KuE; 0.2 nM/well) as reference radioligand (n=3). Internalization studies of the radiolabeled ligands (1.0 nM/well) were performed on LNCaP cells (1.25×10^5 cells in 1 mL/well) at 37° C. for 1 h and accompanied by ([^125I]BA)KuE (0.2 nM/well), as reference. Data were corrected for non-specific binding and normalized to the specific internalization observed for the reference (n=3). A detailed description of the experimental procedures was previously published (Wurzer A, et al. J Nucl Med. 2020; 61: 735-742).

[1] = Lipophilicity, n-octanol/PBS (pH 7.4) distribution; type: physicochemical; details: n-octanol/PBS pH 7.4, 177Lu-labeled, n=6
Method: Approximately 1 MBq of the ^177Lu-labeled PSMA ligand was dissolved in 1 mL of a 1:1 mixture (v/v) of phosphate-buffered saline (PBS, pH 7.4) and n-octanol (n=6). After vigorous mixing of the suspension for 3 min, the vial was centrifuged at 15000×g for 3 min and 100 μL aliquots of both layers were measured in a γ-counter. Finally, the ratio of the radioactivity detected in the n-octanol sample and the PBS buffer was calculated and expressed as distribution ratio log D7.4.

human serum albumin = target: T1, human serum albumin (Homo sapiens, UniProt P02768); assay: Binding to human serum albumin by albumin mediated size exclusion chromatography (AMSEC); type: in vitro ADME; details: size exclusion chromatography with HSA in the mobile phase, 177Lu-labeled
T1 construct: purchased Biowest, Nuaillé, France
Method: Binding of ^177Lu-labeled ligands to HSA was assessed by albumin mediated size exclusion chromatography (AMSEC). A gel filtration size exclusion column (Superdex 75 Increase 10/300 GL, GE Healthcare, Uppsala, Sweden) was used with HSA buffer at physiological concentration (700 μM, Biowest, Nuaillé, France) as mobile phase (constant flow rate of 0.8 mL/min at room temperature). For calibration purposes, a commercially available set of proteins (GE Healthcare, Buckinghamshire, UK) was used. Under these chromatographic conditions, the retention time of a radioligand (1.0 MBq, 10-20 GBq/μmol) depends on the extent of HSA/ligand interactions and thus, by means of the calibration with the aforementioned set of proteins, can be translated into an AMW (expressed in kDa) as a parameter allowing to quantify the extent of HSA binding. The detection window ranges between 2.3 kDa ([^18F]Fluoride; no HSA interaction) and 70.2 kDa (experimental molecular weight of HSA; maximum HSA interaction).

[2] = test system: LNCaP tumor-bearing male CB-17 SCID mice; assay: Ex vivo biodistribution in LNCaP tumor-bearing CB-17 SCID mice; details: 24 h p.i.; for Tumor uptake / Activity accumulation tumor: LNCaP tumor; for Tumor-to-organ ratio adrenals / Tumor-to-organ ratio blood / Tumor-to-organ ratio bone / Tumor-to-organ ratio heart / Tumor-to-organ ratio intestine / Tumor-to-organ ratio kidney / Tumor-to-organ ratio liver / Tumor-to-organ ratio lung / Tumor-to-organ ratio muscle / Tumor-to-organ ratio pancreas / Tumor-to-organ ratio parotid gl. / Tumor-to-organ ratio spleen / Tumor-to-organ ratio stomach / Tumor-to-organ ratio submand. gl.: n=5, mean of ratios per mouse; for Activity accumulation adrenals / Activity accumulation blood / Activity accumulation bone / Activity accumulation heart / Activity accumulation intestine / Activity accumulation liver / Activity accumulation lung / Activity accumulation muscle / Activity accumulation pancreas / Activity accumulation parotid gl. / Activity accumulation spleen / Activity accumulation stomach / Activity accumulation submand. gl. / Activity accumulation tumor / Activity accumulation kidney: n=5, mean, complete dataset
Method: All animal experiments were conducted in accordance with general animal welfare regulations in Germany (German animal protection act, as amended on 18 May 2018, Art. 141 G v. 29 Mar. 2017 I 626, approval no. 55.2-1-54-2532-71-13) and the institutional guidelines for the care and use of animals. LNCaP tumor xenografts were established in 6-8 weeks old male CB-17 SCID mice as described previously (Wurzer A, et al. J Nucl Med. 2020; 61: 735-742). Biodistribution Studies. The ^177Ludabeled PSMA inhibitors (2-5 MBq; 0.1 nmol) were injected under isoflurane anesthesia into the tail vein of LNCaP tumor-bearing male CB-17 SCID mice that were sacrificed 24 h post injection (p.i.) (n=4-5). Selected organs were removed, weighed, and measured in a counter. All rhPSMA ligands were evaluated in mice during the same time period (Q1/2020), whereas ^177Ludabeled PSMA-617 and PSMA I&T (Wirtz M, et al. EJNMMI Res. 2018; 8: 84) were assessed previously using the identical cell line, mouse model and experimental procedure.

PSMA = target: T2, PSMA (Homo sapiens, UniProt Q04609); assay: Competitive binding studies on LNCaP cells vs ([125I]BA)KuE (affinity, IC50); details: 1 h, 4° C., natLu complexes, n=3
T2 construct: endogenous in cells; host or cells: LNCaP cells
Method: as §1

T1 sequence (P02768 25-609): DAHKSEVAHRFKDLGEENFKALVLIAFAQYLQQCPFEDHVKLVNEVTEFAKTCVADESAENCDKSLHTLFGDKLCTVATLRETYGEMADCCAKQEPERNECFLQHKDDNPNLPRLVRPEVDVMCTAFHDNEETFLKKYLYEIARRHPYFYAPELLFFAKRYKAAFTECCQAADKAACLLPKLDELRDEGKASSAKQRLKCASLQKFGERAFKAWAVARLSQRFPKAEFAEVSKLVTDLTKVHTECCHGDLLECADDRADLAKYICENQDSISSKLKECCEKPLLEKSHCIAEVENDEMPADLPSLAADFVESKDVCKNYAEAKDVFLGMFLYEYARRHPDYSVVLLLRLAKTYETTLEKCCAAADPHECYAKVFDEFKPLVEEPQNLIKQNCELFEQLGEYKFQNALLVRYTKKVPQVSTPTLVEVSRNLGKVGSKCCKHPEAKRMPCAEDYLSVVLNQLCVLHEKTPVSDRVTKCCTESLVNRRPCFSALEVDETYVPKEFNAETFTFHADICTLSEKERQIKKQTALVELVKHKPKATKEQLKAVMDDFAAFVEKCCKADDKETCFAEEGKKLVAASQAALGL
T2 sequence (Q04609 whole entry): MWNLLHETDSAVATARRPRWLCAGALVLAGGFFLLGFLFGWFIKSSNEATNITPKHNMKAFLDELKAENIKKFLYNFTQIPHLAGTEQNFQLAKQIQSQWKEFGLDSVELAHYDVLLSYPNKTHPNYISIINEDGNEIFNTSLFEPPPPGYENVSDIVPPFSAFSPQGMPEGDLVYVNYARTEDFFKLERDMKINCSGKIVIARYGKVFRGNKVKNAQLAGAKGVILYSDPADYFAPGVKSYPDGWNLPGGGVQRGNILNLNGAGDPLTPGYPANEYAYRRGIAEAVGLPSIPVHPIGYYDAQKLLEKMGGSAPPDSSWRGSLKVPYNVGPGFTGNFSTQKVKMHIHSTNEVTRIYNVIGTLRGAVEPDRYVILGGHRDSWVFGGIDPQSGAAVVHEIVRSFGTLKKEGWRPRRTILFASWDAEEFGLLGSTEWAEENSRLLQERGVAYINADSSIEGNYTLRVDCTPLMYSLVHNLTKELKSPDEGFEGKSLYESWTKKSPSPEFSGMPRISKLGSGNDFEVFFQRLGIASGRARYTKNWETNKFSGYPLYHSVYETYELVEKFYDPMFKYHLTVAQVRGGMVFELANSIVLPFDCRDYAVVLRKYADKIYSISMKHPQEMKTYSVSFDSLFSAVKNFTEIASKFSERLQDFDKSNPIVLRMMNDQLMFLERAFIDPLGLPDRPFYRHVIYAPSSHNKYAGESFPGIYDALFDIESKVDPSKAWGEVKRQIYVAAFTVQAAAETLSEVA

Row | SMILES | Internalization [% IBA-KuE] (LNCaP cells) | logD7.4 [1] | MWapp [kDa] (apparent molecular weight, AMW; HSA binding) (human serum albumin) | Tumor uptake [2] | Tumor-to-organ ratio adrenals [2] | Tumor-to-organ ratio blood [2] | Tumor-to-organ ratio bone [2] | Tumor-to-organ ratio heart [2] | Tumor-to-organ ratio intestine [2] | Tumor-to-organ ratio kidney [2] | Tumor-to-organ ratio liver [2] | Tumor-to-organ ratio lung [2] | Tumor-to-organ ratio muscle [2] | Tumor-to-organ ratio pancreas [2] | Tumor-to-organ ratio parotid gl. [2] | Tumor-to-organ ratio spleen [2] | Tumor-to-organ ratio stomach [2] | Tumor-to-organ ratio submand. gl. [2] | Activity accumulation adrenals [2] | IC50 (PSMA) | also measured
1 | CC(C)(C)[Si]([19F])(c1ccc(C(=O)NC[C@@H](NC(=O)CN2CCN(CC(=O)O)CCN(CC(=O)O)CCN(CC(=O)O)CC2)C(=O)N[C@H](CCCCNC(=O)CCC(=O)NCCC[C@@H](NC(=O)CC[C@H](NC(=O)N[C@@H](CCC(=O)O)C(=O)O)C(=O)O)C(=O)O)C(=O)O)cc1)C(C)(C)C [[^177Lu, ^19F]rhPSMA-10.1, metal not drawn] | 177.4 ± 14.6 % IBA-KuE | −3.8 and −3.78 ± 0.06 | 25.1 kDa | 9.8±0.3 % ID/g | 137.57 | 9117 | 389.88 | 641.37 | 250.87 | 5.5 | 72.52 | 404.28 | 2431.90 | 797.72 | 206.18 | 63.66 | 351.52 | 344.45 | 0.0983 % ID/g | 2.76 ± 0.51 nM | Kidney uptake as percentage of that of [177Lu, 19F]rhPSMA-7.3 [2]: 20%; Tumor-to-blood ratio, times higher compared to [177Lu, 19F]rhPSMA-7.3 [2]: 2 times; Tumor-to-blood ratio, times higher compared to [177Lu]PSMA-617 [2]: 7 times; Tumor-to-organ ratio blood ([2]; listed as [^177Lu]rhPSMA-10.1): 9117.20; Tumor-to-organ ratio kidney ([2]; listed as [^177Lu]rhPSMA-10.1): 5.52; Activity accumulation blood [2]: 0.0019 % ID/g; Activity accumulation bone [2]: 0.0298 % ID/g; Activity accumulation heart [2]: 0.0192 % ID/g; Activity accumulation intestine [2]: 0.0642 % ID/g; Activity accumulation liver [2]: 0.1631 % ID/g; Activity accumulation lung [2]: 0.0346 % ID/g; Activity accumulation muscle [2]: 0.0053 % ID/g; Activity accumulation pancreas [2]: 0.0155 % ID/g; Activity accumulation parotid gl. [2]: 0.0551 % ID/g; Activity accumulation spleen [2]: 0.1828 % ID/g; Activity accumulation stomach [2]: 0.0388 % ID/g; Activity accumulation submand. gl. [2]: 0.0338 % ID/g; Activity accumulation tumor [2]: 11.5563 % ID/g; Activity accumulation kidney ([2]; listed as [^177Lu]rhPSMA-10.1): 2.4219 % ID/g
2 | CC(C)(C)[Si](F)(c1ccc(C(=O)NC[C@H](NC(=O)CN2CCN(CC(=O)[O-])CCN(CC(=O)[O-])CCN(CC(=O)[O-])CC2)C(=O)N[C@H](CCCCNC(=O)CCC(=O)NCCC[C@@H](NC(=O)CC[C@H](NC(=O)N[C@@H](CCC(=O)O)C(=O)O)C(=O)O)C(=O)O)C(=O)O)cc1)C(C)(C)C.[Lu+3] [[^177Lu, ^19F]rhPSMA-10.2] | 205.6 ± 8.3 % IBA-KuE | −3.8 and −3.83 ± 0.10 | 21.8 kDa | 10.5±3.3 % ID/g | – | – | – | – | – | – | – | – | – | – | – | – | – | – | – | 3.61 ± 0.59 nM | –
3 | CC(C)(C)[Si](F)(c1ccc(C(=O)NC[C@@H](NC(=O)CC[C@@H](C(=O)O)N2CCN(CC(=O)[O-])CCN(CC(=O)[O-])CCN(CC(=O)[O-])CC2)C(=O)N[C@H](CCCCNC(=O)CCC(=O)NCCC[C@@H](NC(=O)CC[C@H](NC(=O)N[C@@H](CCC(=O)O)C(=O)O)C(=O)O)C(=O)O)C(=O)O)cc1)C(C)(C)C.[Lu+3] [[^177Lu, ^19F]rhPSMA-7.3] | 184.4 ± 11.8 % IBA-KuE | −4.12 ± 0.11 | 30.4 kDa | – | 44.34 | 4255 | 625.98 | 542.49 | 254.02 | 1.64 | 78.11 | 239.97 | 2123.58 | 754.34 | 176.66 | 34.32 | 453.70 | 290.08 | 0.4233 % ID/g | 3.29 ± 1 nM | Tumor-to-organ ratio blood ([2]; listed as [^177Lu]rhPSMA-7.3): 4255.56; Activity accumulation blood [2]: 0.0046 % ID/g; Activity accumulation bone [2]: 0.0307 % ID/g; Activity accumulation heart [2]: 0.0333 % ID/g; Activity accumulation intestine [2]: 0.1001 % ID/g; Activity accumulation kidney [2]: 11.4±1.4 % ID/g; Activity accumulation liver [2]: 0.2352 % ID/g; Activity accumulation lung [2]: 0.0768 % ID/g; Activity accumulation muscle [2]: 0.0094 % ID/g; Activity accumulation pancreas [2]: 0.0241 % ID/g; Activity accumulation parotid gl. [2]: 0.1068 % ID/g; Activity accumulation spleen [2]: 0.5817 % ID/g; Activity accumulation stomach [2]: 0.0434 % ID/g; Activity accumulation submand. gl. [2]: 0.0644 % ID/g; Activity accumulation tumor [2]: 18.1740 % ID/g; Activity accumulation kidney ([2]; listed as [^177Lu]rhPSMA-7.3): 11.3738 % ID/g
